SMILES strings stand for the structures.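 1) Cells in 96-well plates. 2) Compound, 48 h, 5 concentrations. 3) Linear interpolation between surrounding doses. 4) Unreached endpoint = highest concentration. TGI marks complete inhibition of growth.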

The first assay has as its system DLD-1 colon. Kind of assay: NCI-60 cell line screen, 48 h.
For `C/C(CN1C(=O)c2ccccc2C1=O)=N\NS(=O)(=O)c1ccc(Br)cc1`, the TGI is > 100 µM.

On to `CC1CC2OC(=O)C3CC(O)CC(=C23)[C@@]12C[C@@H](c1ccoc1)OC2=O` (stereo partly specified), for which the TGI is > 100 µM.

On to `NC(=S)NNC(=O)/C(=C/c1ccc(/C=C(\NC(=O)c2ccccc2)C(=O)NNC(N)=S)cc1)NC(=O)c1ccccc1`, for which the TGI is > 100 µM.

In turn, `NC(=O)OCC(COc1ccc(Cl)cc1)OC(=O)c1ccccc1Cl` (stereo unspecified) displayed a TGI of 37.1 µM.

Another assay has as its system KM20L2 colon. Kind of assay: NCI-60 cell line screen, 48 h.
For the compound `C/C(CN1C(=O)c2ccccc2C1=O)=N\NS(=O)(=O)c1ccc(Br)cc1`, the TGI is > 100 µM.

Take `CC1CC2OC(=O)C3CC(O)CC(=C23)[C@@]12C[C@@H](c1ccoc1)OC2=O` (stereo partly specified): the TGI is > 100 µM.

For `NC(=S)NNC(=O)/C(=C/c1ccc(/C=C(\NC(=O)c2ccccc2)C(=O)NNC(N)=S)cc1)NC(=O)c1ccccc1`, the TGI was > 100 µM.

`NC(=O)OCC(COc1ccc(Cl)cc1)OC(=O)c1ccccc1Cl` (stereo unspecified) gave a TGI of 34.9 µM.

In another assay the test system is LOX IMVI melanoma. The assay is described as follows: NCI-60 cell line screen, 48 h.
In the case of `C/C(CN1C(=O)c2ccccc2C1=O)=N\NS(=O)(=O)c1ccc(Br)cc1`, the TGI was > 100 µM.

As to `CC1CC2OC(=O)C3CC(O)CC(=C23)[C@@]12C[C@@H](c1ccoc1)OC2=O` (stereo partly specified), the TGI was > 100 µM.

As for `NC(=S)NNC(=O)/C(=C/c1ccc(/C=C(\NC(=O)c2ccccc2)C(=O)NNC(N)=S)cc1)NC(=O)c1ccccc1`, the TGI is > 100 µM.

The compound `NC(=O)OCC(COc1ccc(Cl)cc1)OC(=O)c1ccccc1Cl` (stereo unspecified) registered a TGI of 27.9 µM.

Another assay has as its system SN12C renal. Kind of assay: NCI-60 cell line screen, 48 h.
On to `C/C(CN1C(=O)c2ccccc2C1=O)=N\NS(=O)(=O)c1ccc(Br)cc1`, for which the TGI was > 100 µM.

For `CC1CC2OC(=O)C3CC(O)CC(=C23)[C@@]12C[C@@H](c1ccoc1)OC2=O` (stereo partly specified), the TGI was > 100 µM.

For `NC(=S)NNC(=O)/C(=C/c1ccc(/C=C(\NC(=O)c2ccccc2)C(=O)NNC(N)=S)cc1)NC(=O)c1ccccc1`, the TGI is > 100 µM.

For the compound `NC(=O)OCC(COc1ccc(Cl)cc1)OC(=O)c1ccccc1Cl` (stereo unspecified), the TGI was found to be 34 µM.

The subject of another assay is SF-268 CNS. The assay is described as follows: NCI-60 cell line screen, 48 h.
In the case of `C/C(CN1C(=O)c2ccccc2C1=O)=N\NS(=O)(=O)c1ccc(Br)cc1`, the TGI is > 100 µM.

As to `CC1CC2OC(=O)C3CC(O)CC(=C23)[C@@]12C[C@@H](c1ccoc1)OC2=O` (stereo partly specified), the TGI was > 100 µM.

As to `NC(=S)NNC(=O)/C(=C/c1ccc(/C=C(\NC(=O)c2ccccc2)C(=O)NNC(N)=S)cc1)NC(=O)c1ccccc1`, the TGI was > 100 µM.

The compound `NC(=O)OCC(COc1ccc(Cl)cc1)OC(=O)c1ccccc1Cl` (stereo unspecified) returned a TGI of 79.1 µM.

The test system of the next assay is UACC-257 melanoma. The assay is described as follows: NCI-60 cell line screen, 48 h.
On to `C/C(CN1C(=O)c2ccccc2C1=O)=N\NS(=O)(=O)c1ccc(Br)cc1`, for which the TGI is > 100 µM.

Take `CC1CC2OC(=O)C3CC(O)CC(=C23)[C@@]12C[C@@H](c1ccoc1)OC2=O` (stereo partly specified): the TGI was > 100 µM.

Turning to `NC(=S)NNC(=O)/C(=C/c1ccc(/C=C(\NC(=O)c2ccccc2)C(=O)NNC(N)=S)cc1)NC(=O)c1ccccc1`, the TGI is > 100 µM.

The compound `NC(=O)OCC(COc1ccc(Cl)cc1)OC(=O)c1ccccc1Cl` (stereo unspecified) returned a TGI of 37.8 µM.

The test system of a further assay is NCI-H460 lung. Kind of assay: NCI-60 cell line screen, 48 h.
For `C/C(CN1C(=O)c2ccccc2C1=O)=N\NS(=O)(=O)c1ccc(Br)cc1`, the TGI is > 100 µM.

With `CC1CC2OC(=O)C3CC(O)CC(=C23)[C@@]12C[C@@H](c1ccoc1)OC2=O` (stereo partly specified), the TGI was > 100 µM.

Turning to `NC(=S)NNC(=O)/C(=C/c1ccc(/C=C(\NC(=O)c2ccccc2)C(=O)NNC(N)=S)cc1)NC(=O)c1ccccc1`, the TGI is > 100 µM.

Turning to `NC(=O)OCC(COc1ccc(Cl)cc1)OC(=O)c1ccccc1Cl` (stereo unspecified), the TGI is 30.9 µM.

The subject of another assay is U251 CNS. Kind of assay: NCI-60 cell line screen, 48 h.
`C/C(CN1C(=O)c2ccccc2C1=O)=N\NS(=O)(=O)c1ccc(Br)cc1`: the TGI is > 100 µM.

With `CC1CC2OC(=O)C3CC(O)CC(=C23)[C@@]12C[C@@H](c1ccoc1)OC2=O` (stereo partly specified), the TGI is > 100 µM.

Consider `NC(=S)NNC(=O)/C(=C/c1ccc(/C=C(\NC(=O)c2ccccc2)C(=O)NNC(N)=S)cc1)NC(=O)c1ccccc1`, for which the TGI was > 100 µM.

`NC(=O)OCC(COc1ccc(Cl)cc1)OC(=O)c1ccccc1Cl` (stereo unspecified) returned a TGI of 27.6 µM.

The next assay concerns NCI-H522 lung. Kind of assay: NCI-60 cell line screen, 48 h.
In the case of `C/C(CN1C(=O)c2ccccc2C1=O)=N\NS(=O)(=O)c1ccc(Br)cc1`, the TGI is > 100 µM.

For `CC1CC2OC(=O)C3CC(O)CC(=C23)[C@@]12C[C@@H](c1ccoc1)OC2=O` (stereo partly specified), the TGI is > 100 µM.

Regarding `NC(=S)NNC(=O)/C(=C/c1ccc(/C=C(\NC(=O)c2ccccc2)C(=O)NNC(N)=S)cc1)NC(=O)c1ccccc1`, the TGI was > 71.1 µM.

`NC(=O)OCC(COc1ccc(Cl)cc1)OC(=O)c1ccccc1Cl` (stereo unspecified) registered a TGI of 31.9 µM.

A further assay deals with XF 498 CNS. The assay is described as follows: NCI-60 cell line screen, 48 h.
In the case of `CC1CC2OC(=O)C3CC(O)CC(=C23)[C@@]12C[C@@H](c1ccoc1)OC2=O` (stereo partly specified), the TGI was > 100 µM.

Take `NC(=S)NNC(=O)/C(=C/c1ccc(/C=C(\NC(=O)c2ccccc2)C(=O)NNC(N)=S)cc1)NC(=O)c1ccccc1`: the TGI was > 100 µM.

In a further assay the test system is K-562 leukemia. Kind of assay: NCI-60 cell line screen, 48 h.
On to `C/C(CN1C(=O)c2ccccc2C1=O)=N\NS(=O)(=O)c1ccc(Br)cc1`, for which the TGI is > 100 µM.

Turning to `CC1CC2OC(=O)C3CC(O)CC(=C23)[C@@]12C[C@@H](c1ccoc1)OC2=O` (stereo partly specified), the TGI was > 100 µM.

With `NC(=S)NNC(=O)/C(=C/c1ccc(/C=C(\NC(=O)c2ccccc2)C(=O)NNC(N)=S)cc1)NC(=O)c1ccccc1`, the TGI was > 31.6 µM.

Compound `NC(=O)OCC(COc1ccc(Cl)cc1)OC(=O)c1ccccc1Cl` (stereo unspecified) had a TGI of 39.4 µM.

The subject of a further assay is DMS 114 small cell lung. Kind of assay: NCI-60 cell line screen, 48 h.
The compound `C/C(CN1C(=O)c2ccccc2C1=O)=N\NS(=O)(=O)c1ccc(Br)cc1` displayed a TGI of 68.8 µM.

`NC(=S)NNC(=O)/C(=C/c1ccc(/C=C(\NC(=O)c2ccccc2)C(=O)NNC(N)=S)cc1)NC(=O)c1ccccc1`: the TGI is > 100 µM.

For the compound `NC(=O)OCC(COc1ccc(Cl)cc1)OC(=O)c1ccccc1Cl` (stereo unspecified), the TGI came to 28.1 µM.

A further assay concerns COLO 205 colon. The assay is described as follows: NCI-60 cell line screen, 48 h.
As to `C/C(CN1C(=O)c2ccccc2C1=O)=N\NS(=O)(=O)c1ccc(Br)cc1`, the TGI is > 100 µM.

On to `CC1CC2OC(=O)C3CC(O)CC(=C23)[C@@]12C[C@@H](c1ccoc1)OC2=O` (stereo partly specified), for which the TGI is > 100 µM.

Take `NC(=S)NNC(=O)/C(=C/c1ccc(/C=C(\NC(=O)c2ccccc2)C(=O)NNC(N)=S)cc1)NC(=O)c1ccccc1`: the TGI is > 100 µM.

The compound `NC(=O)OCC(COc1ccc(Cl)cc1)OC(=O)c1ccccc1Cl` (stereo unspecified) had a TGI of 32.7 µM.

Another assay deals with A549 NSCLC. Kind of assay: NCI-60 cell line screen, 48 h.
For the compound `C/C(CN1C(=O)c2ccccc2C1=O)=N\NS(=O)(=O)c1ccc(Br)cc1`, the TGI is > 100 µM.

As for `CC1CC2OC(=O)C3CC(O)CC(=C23)[C@@]12C[C@@H](c1ccoc1)OC2=O` (stereo partly specified), the TGI is > 100 µM.

Take `NC(=S)NNC(=O)/C(=C/c1ccc(/C=C(\NC(=O)c2ccccc2)C(=O)NNC(N)=S)cc1)NC(=O)c1ccccc1`: the TGI is > 100 µM.

For the compound `NC(=O)OCC(COc1ccc(Cl)cc1)OC(=O)c1ccccc1Cl` (stereo unspecified), the TGI turned out to be 75.8 µM.

A further assay relates to HOP-92 NSCLC. The assay is described as follows: NCI-60 cell line screen, 48 h.
On to `C/C(CN1C(=O)c2ccccc2C1=O)=N\NS(=O)(=O)c1ccc(Br)cc1`, for which the TGI is > 100 µM.

Take `CC1CC2OC(=O)C3CC(O)CC(=C23)[C@@]12C[C@@H](c1ccoc1)OC2=O` (stereo partly specified): the TGI is > 100 µM.

Turning to `NC(=S)NNC(=O)/C(=C/c1ccc(/C=C(\NC(=O)c2ccccc2)C(=O)NNC(N)=S)cc1)NC(=O)c1ccccc1`, the TGI was > 100 µM.
